Results from US6737383B1, “Herbicidal oxadiazolidines” (priority 1999, dated 2004).

Legend:
corn = assay: Test B pre/postemergence corn; assay type: in vivo, Zea mays
Outline: (§1)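 Response is a visual 0-to-10 score relative to untreated plants, where 0 means no effect and 10 means complete control, taken twelve to sixteen days after application. Treatments went onto soil at planting and onto foliage of 1- to 4-leaf plants, using a surfactant-containing non-phytotoxic solvent.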

giant foxtail = assay: Test B pre/postemergence giant foxtail; assay type: in vivo, Setaria faberii
Outline: as §1

purple nutsedge = assay: Test B pre/postemergence purple nutsedge; assay type: in vivo, Cyperus rotundus
Outline: as §1

surinam grass = assay: Test B pre/postemergence surinam grass; assay type: in vivo, Brachiaria decumbens
Outline: as §1

velvetleaf = assay: Test B pre/postemergence velvetleaf; assay type: in vivo, Abutilon theophrasti
Outline: as §1

duck salad = assay: Test B flood test duck salad; assay type: in vivo, Heteranthera limosa
Outline: (§2)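 Plants were grown to the 2-leaf stage before treatment with test chemical, then held in a greenhouse for twelve to sixteen days. Injury was visually rated against untreated controls on a 0–10 scale, where 0 is no effect and 10 is complete control.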

blackgrass = assay: Test B pre/postemergence blackgrass; assay type: in vivo, Alopecurus myosuroides
Outline: as §1

bedstraw = assay: Test B pre/postemergence bedstraw; assay type: in vivo, Galium aparine
Outline: as §1

cocklebur = assay: Test B pre/postemergence cocklebur; assay type: in vivo, Xanthium strumarium
Outline: as §1

morningglory = assay: Test B pre/postemergence morningglory; assay type: in vivo, Ipomoea hederacea
Outline: as §1

sugar beet = assay: Test B pre/postemergence sugar beet; assay type: in vivo, Beta vulgaris
Outline: as §1

bamyardgrass = assay: Test B flood test barnyardgrass; assay type: in vivo, Echinochloa crus-galli
Outline: as §2

rape = assay: Test B pre/postemergence rape; assay type: in vivo, Brassica napus
Outline: as §1

pigweed = assay: Test B pre/postemergence pigweed; assay type: in vivo, Amaranthus retroflexus
Outline: as §1

rice = assay: Test B flood test rice; assay type: in vivo, Oryza sativa
Outline: as §2

[1] = Preemergence, Rate 62 g/ha, scale of 0 to 10 where 0 is no effect and 10 is complete control
[2] = Preemergence, Rate 250 g/ha, scale of 0 to 10 where 0 is no effect and 10 is complete control
[3] = Preemergence, Rate 500 g/ha, scale of 0 to 10 where 0 is no effect and 10 is complete control
[4] = Rate 62 g/ha, Postemergence, scale of 0 to 10 where 0 is no effect and 10 is complete control
[5] = Rate 125 g/ha, Postemergence, scale 0 to 10
[6] = Rate 125 g/ha, Preemergence, scale of 0 to 10 where 0 is no effect and 10 is complete control
[7] = Rate 500 g/ha, Postemergence, scale 0 to 10, 0 no effect, 10 complete control
[8] = Rate 62 g/ha, headed Pre-emergence (flood test species), scale 0 to 10 (0 no effect, 10 complete control)
[9] = Rate 125 g/ha, Pre-emergence, flood test species, scale 0 to 10 where 0 is no effect and 10 is complete control
[10] = Rate 250 g/ha, Pre-emergence, flood-test species, scale 0 to 10, 0 is no effect, 10 is complete control
[11] = Rate 500 g/ha, Pre-emergence, flood test species, scale 0 to 10 (0 no effect, 10 complete control)

## COc1cc(C)cc(C)c1-n1c(=O)on(C(=O)N(c2ccc(F)cc2F)C(C)C)c1=O [Compound 223]
corn; [1]
  Corn plant response rating: 0
corn; [2]
  Corn plant response rating: 0
corn; [3]
  Plant response rating, Corn: 0
corn; [4]
  Corn plant response rating: 0
corn; [5]
  Corn plant response rating: 0
corn; [6]
  Corn plant response rating: 0
corn; Rate 250 g/ha, Postemergence
  Plant response rating (0 to 10; 0 is no effect, 10 is complete control), Corn: 0
corn; [7]
  Corn plant response rating: 0
Giant foxtail; [1]
  Giant foxtail plant response rating: 7
Giant foxtail; [3]
  Plant response rating, Giant foxtail: 9
Giant foxtail; [4]
  Giant foxtail plant response rating: 0
Giant foxtail; [5]
  Giant foxtail plant response rating: 0
Giant foxtail; [6]
  Giant foxtail plant response rating: 9
Giant foxtail; Rate 250 g/ha, Postemergence
  Plant response rating (0 to 10; 0 is no effect, 10 is complete control), Giant foxtail: 0
Giant foxtail; [7]
  Giant foxtail plant response rating: 1
Purple nutsedge; [1]
  Nutsedge plant response rating: 0
Purple nutsedge; [4]
  Nutsedge plant response rating: 0
Purple nutsedge; [5]
  Nutsedge plant response rating: 0
Purple nutsedge; [6]
  Nutsedge plant response rating: 0
Purple nutsedge; Rate 250 g/ha, Postemergence
  Plant response rating (0 to 10; 0 is no effect, 10 is complete control), Nutsedge: 0
Purple nutsedge; [7]
  Nutsedge plant response rating: 0
Surinam grass; [1]
  B. signalgrass plant response rating: 0
Surinam grass; Preemergence, Rate 250 g/ha, scale 0 to 10, 0 is no effect, 10 is complete control
  B. signalgrass plant response rating: 3
Surinam grass; [3]
  Plant response rating, B. signalgrass: 4
Surinam grass; [4]
  B. signalgrass plant response rating: 0
Surinam grass; Rate 125 g/ha, Postemergence, scale 0 (no effect) to 10 (complete control)
  B. signalgrass plant response rating: 0
Surinam grass; [6]
  B. signalgrass plant response rating: 0
Surinam grass; Rate 250 g/ha, Postemergence
  Plant response rating (0 to 10; 0 is no effect, 10 is complete control), B. signalgrass: 0
Surinam grass; [7]
  B. signalgrass plant response rating: 0
velvetleaf; [1]
  Velvetleaf plant response rating: 0
velvetleaf; [2]
  Velvetleaf plant response rating: 0
velvetleaf; [3]
  Plant response rating, Velvetleaf: 0
velvetleaf; [4]
  Velvetleaf plant response rating: 0
velvetleaf; [5]
  Velvetleaf plant response rating: 0
velvetleaf; [6]
  Velvetleaf plant response rating: 0
velvetleaf; Rate 250 g/ha, Postemergence
  Plant response rating (0 to 10; 0 is no effect, 10 is complete control), Velvetleaf: 2
velvetleaf; [7]
  Velvetleaf plant response rating: 3
Duck salad; [8]
  Ducksalad plant response rating: 0
Duck salad; [9]
  Ducksalad plant response rating: 0
Duck salad; [10]
  Ducksalad plant response rating: 0
Duck salad; [11]
  Ducksalad plant response rating: 0
blackgrass; [1]
  Blackgrass plant response rating: 0
blackgrass; [2]
  Blackgrass plant response rating: 4
blackgrass; [3]
  Plant response rating, Blackgrass: 5
blackgrass; [4]
  Blackgrass plant response rating: 0
blackgrass; [5]
  Blackgrass plant response rating: 0
blackgrass; [6]
  Blackgrass plant response rating: 1
blackgrass; Rate 250 g/ha, Postemergence
  Plant response rating (0 to 10; 0 is no effect, 10 is complete control), Blackgrass: 3
blackgrass; [7]
  Blackgrass plant response rating: 1
bedstraw; [1]
  Bedstraw plant response rating: 0
bedstraw; [2]
  Bedstraw plant response rating: 0
bedstraw; [3]
  Plant response rating, Bedstraw: 3
bedstraw; [4]
  Bedstraw plant response rating: 3
bedstraw; [5]
  Bedstraw plant response rating: 3
bedstraw; [6]
  Bedstraw plant response rating: 0
bedstraw; Rate 250 g/ha, Postemergence
  Plant response rating (0 to 10; 0 is no effect, 10 is complete control), Bedstraw: 4
bedstraw; [7]
  Bedstraw plant response rating: 5
cocklebur; [1]
  Cocklebur plant response rating: 0
cocklebur; [2]
  Cocklebur plant response rating: 0
cocklebur; [3]
  Plant response rating, Cocklebur: 0
cocklebur; [4]
  Cocklebur plant response rating: 0
cocklebur; [5]
  Cocklebur plant response rating: 0
cocklebur; [6]
  Cocklebur plant response rating: 0
cocklebur; Rate 250 g/ha, Postemergence
  Plant response rating (0 to 10; 0 is no effect, 10 is complete control), Cocklebur: 0
cocklebur; [7]
  Cocklebur plant response rating: 2
morningglory; [1]
  Morningglory plant response rating: 0
morningglory; [2]
  Morningglory plant response rating: 1
morningglory; [3]
  Plant response rating, Morningglory: 1
morningglory; [4]
  Morningglory plant response rating: 1
morningglory; [5]
  Morningglory plant response rating: 3
morningglory; [6]
  Morningglory plant response rating: 1
morningglory; Rate 250 g/ha, Postemergence
  Plant response rating (0 to 10; 0 is no effect, 10 is complete control), Morningglory: 4
morningglory; [7]
  Morningglory plant response rating: 6
Sugar beet; [1]
  Sugarbeets plant response rating: 0
Sugar beet; [2]
  Sugarbeets plant response rating: 0
Sugar beet; [3]
  Plant response rating, Sugarbeets: 0
Sugar beet; [4]
  Sugarbeets plant response rating: 0
Sugar beet; [5]
  Sugarbeets plant response rating: 1
Sugar beet; [6]
  Sugarbeets plant response rating: 0
Sugar beet; Rate 250 g/ha, Postemergence
  Plant response rating (0 to 10; 0 is no effect, 10 is complete control), Sugarbeets: 2
Sugar beet; [7]
  Sugarbeets plant response rating: 3
bamyardgrass; [8]
  Barnyardgrass plant response rating: 0
bamyardgrass; [9]
  Barnyardgrass plant response rating: 0
bamyardgrass; [10]
  Barnyardgrass plant response rating: 0
bamyardgrass; [11]
  Barnyardgrass plant response rating: 0
rape; [1]
  Rape plant response rating: 0
rape; [2]
  Rape plant response rating: 0
rape; [3]
  Plant response rating, Rape: 0
rape; [4]
  Rape plant response rating: 0
rape; [5]
  Rape plant response rating: 0
rape; [6]
  Rape plant response rating: 0
rape; Rate 250 g/ha, Postemergence
  Plant response rating (0 to 10; 0 is no effect, 10 is complete control), Rape: 0
rape; [7]
  Rape plant response rating: 0
pigweed; [1]
  Redroot pigweed plant response rating: 0
pigweed; [2]
  Redroot pigweed plant response rating: 7
pigweed; [3]
  Plant response rating, Redroot pigweed: 7
pigweed; [4]
  Redroot pigweed plant response rating: 0
pigweed; [5]
  Redroot pigweed plant response rating: 2
pigweed; [6]
  Redroot pigweed plant response rating: 0
pigweed; Rate 250 g/ha, Postemergence
  Plant response rating (0 to 10; 0 is no effect, 10 is complete control), Redroot pigweed: 3
pigweed; [7]
  Redroot pigweed plant response rating: 5
rice; [8]
  Rice plant response rating: 0
rice; [9]
  Rice plant response rating: 0
rice; [10]
  Rice plant response rating: 0
rice; [11]
  Rice plant response rating: 0
